Experimental data from patent US12110276B2 (Genentech, Inc., priority 2021, dated 2024).
pIC50: −log10 of the molar value. Where a name gives a salt, the structure may show the parent alone.

Legend:
TEAD3 = TEAD3 (Homo sapiens (Human), UniProt Q99594); test: TR-FRET lipid pocket probe competition assay (Lipid HTRF), TEAD3; type: binding; details: 4 hours pre-incubation; read-out: Lipid HTRF TEAD3 IC50
Method: (§1) His-tagged TEAD proteins are pre-incubated with TEAD project compounds for 30 minutes or 4 hours at room temperature. Biotinylated lipid pocket probes are then added to the TEAD/Compound mixture and incubated for 60 minutes at room temperature. The lipid pocket probe competes with the test compound for the TEAD lipid pocket until equilibrium is reached. After 60 minutes, Europium labelled anti-His (Perkin Elmer #AD0110) and XL665 labelled streptavidin (CIS Bio 610SAXAC) are added to the TEAD/test compound/lipid pocket mixture and incubated for 30 minutes or 4 hours. […] If a TEAD lipid pocket binder such as binds and displaces the lipid pocket probe, the disruption of the TEAD:probe interaction results in a decrease in TR-FRET signal. The potency of compounds as TEAD lipid pocket binders is determined by IC50 value generated using a non-linear 4 parameter curve fit.

TEAD4 = TEAD4 (Homo sapiens (Human), UniProt Q15561); test: TR-FRET lipid pocket probe competition assay (Lipid HTRF), TEAD4; type: binding; details: 4 hours pre-incubation; read-out: Lipid HTRF TEAD4 IC50;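 further: His-tagged TEAD4 with biotinylated lipid-pocket probe, read by Europium anti-His and XL665 streptavidin, where probe displacement lowers the TR-FRET signal, IC50 from a four-parameter fit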
TEAD2 = TEAD2 (Homo sapiens (Human), UniProt Q15562);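 further: TR-FRET competition assay with His-tagged TEAD protein and a biotinylated lipid pocket probe, compound pre-incubated 30 min or 4 h at room temperature, displacement lowers signal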
TEAD1 = TEAD1 (Homo sapiens (Human), UniProt P28347); test: TR-FRET lipid pocket probe competition assay (Lipid HTRF), TEAD1; type: binding; details: 4 hours pre-incubation; read-out: Lipid HTRF TEAD1 IC50;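 further: His-tagged TEAD1 with biotinylated probe, detected via Europium anti-His and XL665 streptavidin, probe displacement lowers TR-FRET signal, IC50 from four-parameter nonlinear fit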
Sequence of TEAD1 (P28347 whole entry, species assumed): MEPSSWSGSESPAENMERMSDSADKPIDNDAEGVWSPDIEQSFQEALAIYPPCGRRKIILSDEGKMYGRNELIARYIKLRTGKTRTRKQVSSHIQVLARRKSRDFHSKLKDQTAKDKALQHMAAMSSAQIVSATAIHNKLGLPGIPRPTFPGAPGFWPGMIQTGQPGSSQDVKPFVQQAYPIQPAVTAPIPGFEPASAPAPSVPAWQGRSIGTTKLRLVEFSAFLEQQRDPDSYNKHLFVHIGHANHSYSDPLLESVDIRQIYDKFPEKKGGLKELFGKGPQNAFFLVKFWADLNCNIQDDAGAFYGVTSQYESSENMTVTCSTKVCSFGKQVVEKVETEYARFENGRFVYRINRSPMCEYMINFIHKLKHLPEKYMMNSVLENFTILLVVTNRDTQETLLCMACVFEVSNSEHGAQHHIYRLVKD
Method: as §1

Sequence of TEAD4 (Q15561 whole entry, species assumed): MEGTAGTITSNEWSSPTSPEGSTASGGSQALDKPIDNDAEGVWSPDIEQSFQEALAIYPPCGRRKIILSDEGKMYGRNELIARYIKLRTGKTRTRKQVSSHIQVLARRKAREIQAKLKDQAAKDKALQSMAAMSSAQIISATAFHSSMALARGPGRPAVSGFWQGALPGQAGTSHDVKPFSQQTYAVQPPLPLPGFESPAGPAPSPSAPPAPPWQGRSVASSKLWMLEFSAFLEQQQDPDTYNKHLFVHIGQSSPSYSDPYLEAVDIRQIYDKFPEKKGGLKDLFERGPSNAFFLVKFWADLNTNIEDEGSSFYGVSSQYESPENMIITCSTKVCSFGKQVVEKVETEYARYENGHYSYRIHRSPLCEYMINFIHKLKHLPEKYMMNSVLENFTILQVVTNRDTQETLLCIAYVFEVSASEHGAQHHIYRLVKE
Sequence of TEAD3 (Q99594 whole entry, species assumed): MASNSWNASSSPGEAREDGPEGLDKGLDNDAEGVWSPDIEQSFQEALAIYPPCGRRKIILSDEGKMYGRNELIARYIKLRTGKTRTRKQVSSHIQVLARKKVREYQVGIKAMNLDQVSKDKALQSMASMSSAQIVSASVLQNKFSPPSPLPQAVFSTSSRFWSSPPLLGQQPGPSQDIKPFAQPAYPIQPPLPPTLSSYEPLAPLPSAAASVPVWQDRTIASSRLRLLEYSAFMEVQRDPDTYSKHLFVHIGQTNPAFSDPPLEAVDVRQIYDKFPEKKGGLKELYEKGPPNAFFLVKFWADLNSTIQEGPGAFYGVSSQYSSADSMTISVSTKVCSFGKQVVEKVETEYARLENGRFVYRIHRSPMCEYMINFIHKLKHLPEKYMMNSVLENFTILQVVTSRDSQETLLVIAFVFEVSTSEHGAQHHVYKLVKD
Sequence of TEAD2 (Q15562 whole entry, species assumed): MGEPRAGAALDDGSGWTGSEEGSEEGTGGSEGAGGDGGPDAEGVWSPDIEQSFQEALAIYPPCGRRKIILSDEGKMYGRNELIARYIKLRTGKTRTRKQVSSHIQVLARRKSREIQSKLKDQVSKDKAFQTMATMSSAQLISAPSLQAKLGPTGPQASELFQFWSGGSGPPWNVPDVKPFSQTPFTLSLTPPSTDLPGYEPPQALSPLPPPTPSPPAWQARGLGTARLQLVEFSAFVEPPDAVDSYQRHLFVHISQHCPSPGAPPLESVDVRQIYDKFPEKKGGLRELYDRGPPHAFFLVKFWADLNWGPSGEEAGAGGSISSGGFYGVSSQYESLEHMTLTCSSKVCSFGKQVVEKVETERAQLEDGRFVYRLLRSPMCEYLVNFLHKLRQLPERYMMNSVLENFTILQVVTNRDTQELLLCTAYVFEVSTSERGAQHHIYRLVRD

Structure (SMILES)	pIC50 (TEAD3)	pIC50 (TEAD4)	pIC50 (TEAD2)	pIC50 (TEAD1)
C=CC(=O)NCc1nn(-c2ccc(S(F)(F)(F)(F)F)cc2)c2cccc([C@@H](O)CO)c12 (single isomer, unassigned) [Compound 10, N-((4-(1,2-dihydroxyethyl)-1-(4-(pentafluoro-λ^6-sulfanyl)phenyl)-1H-indazol-3-yl)methyl)acrylamide]	6.25	7.31	6.74	7.00
C=CC(=O)NCc1nn(-c2ccc(S(F)(F)(F)(F)F)cc2)c2cccc([C@H](O)CO)c12 (single isomer, unassigned) [Compound 11, N-((4-(1,2-dihydroxyethyl)-1-(4-(pentafluoro-λ^6-sulfanyl)phenyl)-1H-indazol-3-yl)methyl)acrylamide]	5.89	7.77	7.07	7.64
C=CC(=O)NCc1nn(-c2ccc(OC(F)(F)F)cc2)c2nccc([C@@H](O)CO)c12 (stereo in doubt) [Compound 16, N-((4-(1,2-dihydroxyethyl)-1-(4-(trifluoromethoxy)phenyl)-1H-pyrazolo[3,4-b]pyridin-3-yl)methyl)acrylamide]	6.17	7.21	6.92	6.64
C=CC(=O)NCc1nn(-c2ccc(OC(F)(F)F)cc2)c2nccc(N3CCC[C@H](O)C3)c12 (stereo in doubt) [Compound 33, N-((4-(3-hydroxypiperidin-1-yl)-1-(4-(trifluoromethoxy)phenyl)-1H-pyrazolo[3,4-b]pyridin-3-yl)methyl)acrylamide]	4.77	7.96	6.96	7.60
C=CC(=O)NCc1nn(-c2ccc(OC(F)(F)F)cc2)c2nccc(N3CCC[C@@H](O)C3)c12 (stereo in doubt) [Compound 65, N-((4-(3-hydroxypiperidin-1-yl)-1-(4-(trifluoromethoxy)phenyl)-1H-pyrazolo[3,4-b]pyridin-3-yl)methyl)acrylamide]	4.57	7.51	7.00	6.82
C=CC(=O)NCc1nn(-c2ccc(S(F)(F)(F)(F)F)cc2)c2ccccc12 [Compound 3, N-((1-(4-(pentafluoro-λ^6-sulfanyl)phenyl)-1H-indazol-3-yl)methyl)acrylamide]	6.68	8.10	6.60	8.15
C=C(C)C(=O)N1CC(c2nn(-c3ccc(OC(F)(F)F)cc3)c3nccc(CO)c23)C1 [Compound 22, 1-(3-(4-(Hydroxymethyl)-1-(4-(trifluoromethoxy)phenyl)-1H-pyrazolo[3,4-b]pyridin-3-yl)azetidin-1-yl)-2-methylprop-2-en-1-one]	6.52	–	6.60	7.48
C/C=C/C(=O)NCc1nn(-c2ccc(OC(F)(F)F)cc2)c2nccc(CO)c12 [Compound 61, (E)-N-((4-(Hydroxymethyl)-1-(4-(trifluoromethoxy)phenyl)-1H-pyrazolo[3,4-b]pyridin-3-yl)methyl)but-2-enamide]	4.30	–	5.64	–
O=C(C1=CCC1)N1CC(c2nn(-c3ccc(OC(F)(F)F)cc3)c3nccc([C@H](O)CO)c23)C1 [Compound 72, (S)-Cyclobut-1-en-1-yl(3-(4-(1,2-dihydroxyethyl)-1-(4-(trifluoromethoxy)phenyl)-1H-pyrazolo[3,4-b]pyridin-3-yl)azetidin-1-yl)methanone]	7.72	–	8.12	–
C=CC(=O)NCc1nn(-c2ccc(OC(F)(F)F)cc2)c2nccc(N(C)[C@H]3C[C@H](O)C3)c12 [Compound 90, N-((4-((3-hydroxycyclobutyl)(methyl)amino)-1-(4-(trifluoromethoxy)phenyl)-1H-pyrazolo[3,4-b]pyridin-3-yl)methyl)acrylamide]	5.43	8.00	–	–
C=CC(=O)NCc1nn(-c2ccc(OC(F)(F)F)cc2)c2nccc([C@H](O)COC(=O)CN)c12 [Compound 145, (S)-2-(3-(Acrylamidomethyl)-1-(4-(trifluoromethoxy)phenyl)-1H-pyrazolo[3,4-b]pyridin-4-yl)-2-hydroxyethyl 2-aminoacetate formate]	–	7.31	7.15	6.85
C=CC(=O)NCc1nn(-c2ccc(OC(F)(F)F)cc2)c2nccc([C@H](O)COC(C)=O)c12 [Compound 146, (S)-2-(3-(Acrylamidomethyl)-1-(4-(trifluoromethoxy)phenyl)-1H-pyrazolo[3,4-b]pyridin-4-yl)-2-hydroxyethyl acetate]	–	7.55	7.18	7.40
C=CC(=O)NCc1nn(-c2ccc(OC(F)(F)F)cc2)c2nccc([C@H](O)COP(=O)(O)O)c12 [Compound 147, (S)-2-(3-(Acrylamidomethyl)-1-(4-(trifluoromethoxy)phenyl)-1H-pyrazolo[3,4-b]pyridin-4-yl)-2-hydroxyethyl dihydrogen phosphate]	–	4.44	–	–

More lines, now with the values ahead:

pIC50 (TEAD3)	pIC50 (TEAD4)	pIC50 (TEAD2)	pIC50 (TEAD1)	Structure (SMILES)
–	–	6.74	–	C=CC(=O)NCc1nn(-c2ccc(OC(F)(F)F)cc2)c2nccc(N3CC([C@@H](C)O)C3)c12 (stereo in doubt) [Compound 123, N-((4-(3-(1-hydroxyethyl)azetidin-1-yl)-1-(4-(trifluoromethoxy)phenyl)-1H-pyrazolo[3,4-b]pyridin-3-yl)methyl)acrylamide]
–	–	6.54	–	C=CC(=O)NCc1nn(-c2ccc(OC(F)(F)F)cc2)c2nccc(N3CC([C@H](C)O)C3)c12 (stereo in doubt) [Compound 138, N-((4-(3-(1-hydroxyethyl)azetidin-1-yl)-1-(4-(trifluoromethoxy)phenyl)-1H-pyrazolo[3,4-b]pyridin-3-yl)methyl)acrylamide]
–	–	7.54	7.82	O=C(/C=C/CO)N1CC(c2nn(-c3ccc(OC(F)(F)F)cc3)c3nccc(CO)c23)C1 [Compound 94, (E)-4-Hydroxy-1-(3-(4-(hydroxymethyl)-1-(4-(trifluoromethoxy)phenyl)-1H-pyrazolo[3,4-b]pyridin-3-yl)azetidin-1-yl)but-2-en-1-one]
7.04	–	7.57	–	O=C(/C=C/CO)N1CC(c2nn(-c3ccc(OC(F)(F)F)cc3)c3nccc([C@@H](O)CO)c23)C1 [Compound 95, (R,E)-1-(3-(4-(1,2-dihydroxyethyl)-1-(4-(trifluoromethoxy)phenyl)-1H-pyrazolo[3,4-b]pyridin-3-yl)azetidin-1-yl)-4-hydroxybut-2-en-1-one]
6.34	–	7.12	7.49	CC#CC(=O)NCc1nn(-c2ccc(OC(F)(F)F)cc2)c2nccc(CO)c12 [Compound 98, N-((4-(Hydroxymethyl)-1-(4-(trifluoromethoxy)phenyl)-1H-pyrazolo[3,4-b]pyridin-3-yl)methyl)but-2-ynamide]
6.85	–	6.92	–	O=C(/C=C/CO)N1CC(c2nn(-c3ccc(OC(F)(F)F)cc3)c3nccc([C@H](O)CO)c23)C1 [Compound 108, (S,E)-1-(3-(4-(1,2-Dihydroxyethyl)-1-(4-(trifluoromethoxy)phenyl)-1H-pyrazolo[3,4-b]pyridin-3-yl)azetidin-1-yl)-4-hydroxybut-2-en-1-one]
7.96	–	8.22	–	O=C(C1=CCC1)N1CC(c2nn(-c3ccc(OC(F)(F)F)cc3)c3nccc([C@@H](O)CO)c23)C1 [Compound 115, (R)-cyclobut-1-en-1-yl(3-(4-(1,2-dihydroxyethyl)-1-(4-(trifluoromethoxy)phenyl)-1H-pyrazolo[3,4-b]pyridin-3-yl)azetidin-1-yl)methanone]
4.80	7.48	–	–	C=CC(=O)NCc1nn(-c2ccc(OC(F)(F)F)cc2)c2nccc(N(C)[C@H]3C[C@@H](O)C3)c12 [Compound 117, N-((4-((3-hydroxycyclobutyl)(methyl)amino)-1-(4-(trifluoromethoxy)phenyl)-1H-pyrazolo[3,4-b]pyridin-3-yl)methyl)acrylamide]
6.46	–	7.17	7.68	O=C(/C=C/CF)NCc1nn(-c2ccc(OC(F)(F)F)cc2)c2nccc(CO)c12 [Compound 121, (E)-4-Fluoro-N-((4-(hydroxymethyl)-1-(4-(trifluoromethoxy)phenyl)-1H-pyrazolo[3,4-b]pyridin-3-yl)methyl)but-2-enamide]
–	–	–	6.04	O=C(NCc1nn(-c2ccc(OC(F)(F)F)cc2)c2nccc(CO)c12)C1=CCOC1 [Compound 149, N-((4-(Hydroxymethyl)-1-(4-(trifluoromethoxy)phenyl)-1H-pyrazolo[3,4-b]pyridin-3-yl)methyl)-2,5-dihydrofuran-3-carboxamide]
4.30	–	6.54	6.24	O=C(N1CC(c2nn(-c3ccc(OC(F)(F)F)cc3)c3nccc(CO)c23)C1)C12CC1C2 (stereo not drawn) [Compound 153, Bicyclo[1.1.0]butan-1-yl(3-(4-(hydroxymethyl)-1-(4-(trifluoromethoxy)phenyl)-1H-pyrazolo[3,4-b]pyridin-3-yl)azetidin-1-yl)methanone]
7.77	–	8.24	–	O=C(C1=CCC1)N1CC(c2nn(-c3ccc(OC(F)(F)F)cc3)c3nccc([C@@H](O)CO)c23)C1 [Compound 157, (R)-Cyclobut-1-en-1-yl(3-(4-(1,2-dihydroxyethyl)-1-(4-(trifluoromethoxy)phenyl)-1H-pyrazolo[3,4-b]pyridin-3-yl)azetidin-1-yl)methanone]
–	–	8.47	–	C/C=C/S(=O)(=O)N1CC(c2nn(-c3ccc(OC(F)(F)F)cc3)c3nccc([C@H](O)CO)c23)C1 [Compound 161, (S,E)-1-(3-(1-(Prop-1-en-1-ylsulfonyl)azetidin-3-yl)-1-(4-(trifluoromethoxy)phenyl)-1H-pyrazolo[3,4-b]pyridin-4-yl)ethane-1,2-diol]
–	–	8.00	–	C/C=C/S(=O)(=O)N1CC(c2nn(-c3ccc(OC(F)(F)F)cc3)c3nccc([C@@H](O)CO)c23)C1 [Compound 162, (R,E)-1-(3-(1-(prop-1-en-1-ylsulfonyl)azetidin-3-yl)-1-(4-(trifluoromethoxy)phenyl)-1H-pyrazolo[3,4-b]pyridin-4-yl)ethane-1,2-diol]
